{
  "source": "ChEMBL document CHEMBL1201862",
  "about": "“PubChem BioAssay data set” (2004)",
  "type_in_all_cases": "functional",
  "key": {"[1]": {"assay": "viability of HCT116 lacking mutant beta-catenin – cell-based, human colon tumor, dose response (AID 1045);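 also: HCT116 colon tumor cells with beta catenin knocked out; cells exposed to compound for 60 hours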"}, "[2]": {"assay": "Luminescence Cell-Based Dose Confirmation HTS to Identify Activators of 5'UTR Stem-Loop Driven Alpha-Synuclein mRNA Translation in H4 Neuroglioblastoma Cells. [Related pubchem assays: 1829 (Project Summary), 1814 (Primary HTS)]"}, "[3]": {"target": "T1, Tyrosine-protein phosphatase non-receptor type 22 (Homo sapiens, UniProt Q9Y2R2)", "T1 sequence (Q9Y2R2 whole entry)": "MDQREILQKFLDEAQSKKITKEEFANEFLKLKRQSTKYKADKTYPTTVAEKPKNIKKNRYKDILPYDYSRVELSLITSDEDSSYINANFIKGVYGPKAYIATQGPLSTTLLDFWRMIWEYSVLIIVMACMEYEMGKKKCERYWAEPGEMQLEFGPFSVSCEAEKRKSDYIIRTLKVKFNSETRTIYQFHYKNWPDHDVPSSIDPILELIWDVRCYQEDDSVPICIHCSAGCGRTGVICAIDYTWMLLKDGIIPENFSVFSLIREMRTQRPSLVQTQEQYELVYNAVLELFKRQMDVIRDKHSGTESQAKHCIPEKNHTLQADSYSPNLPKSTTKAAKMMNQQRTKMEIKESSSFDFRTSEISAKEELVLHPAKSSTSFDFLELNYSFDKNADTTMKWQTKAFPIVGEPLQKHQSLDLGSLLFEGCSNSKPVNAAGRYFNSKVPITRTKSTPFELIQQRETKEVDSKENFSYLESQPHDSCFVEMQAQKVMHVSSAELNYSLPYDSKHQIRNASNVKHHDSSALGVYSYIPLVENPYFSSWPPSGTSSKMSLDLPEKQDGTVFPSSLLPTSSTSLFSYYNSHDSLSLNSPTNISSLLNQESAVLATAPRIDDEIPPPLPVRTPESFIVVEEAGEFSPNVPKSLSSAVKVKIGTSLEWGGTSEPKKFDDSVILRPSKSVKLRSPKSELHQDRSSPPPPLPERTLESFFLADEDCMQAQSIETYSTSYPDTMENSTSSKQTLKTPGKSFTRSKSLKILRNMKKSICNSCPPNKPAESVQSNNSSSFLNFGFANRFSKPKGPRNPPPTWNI", "assay": "SAR LYP1 Fluorescent Assay using OMFP substrate for In Vitro dose response studies - Set 2. [Related pubchem assays (depositor defined):AID1779, AID1784, AID2140, AID449726, AID488869]"}, "[4]": {"target": "T1, Tyrosine-protein phosphatase non-receptor type 22", "assay": "SAR LYP1 Fluorescent Assay using OMFP substrate for In Vitro dose response studies - Set 3. [Related pubchem assays (depositor defined):AID1779, AID1784, AID2140, AID2686]"}, "[5]": {"target": "T2, Apoptotic protease-activating factor 1 (Homo sapiens, UniProt O14727)", "T2 sequence (O14727 whole entry)": "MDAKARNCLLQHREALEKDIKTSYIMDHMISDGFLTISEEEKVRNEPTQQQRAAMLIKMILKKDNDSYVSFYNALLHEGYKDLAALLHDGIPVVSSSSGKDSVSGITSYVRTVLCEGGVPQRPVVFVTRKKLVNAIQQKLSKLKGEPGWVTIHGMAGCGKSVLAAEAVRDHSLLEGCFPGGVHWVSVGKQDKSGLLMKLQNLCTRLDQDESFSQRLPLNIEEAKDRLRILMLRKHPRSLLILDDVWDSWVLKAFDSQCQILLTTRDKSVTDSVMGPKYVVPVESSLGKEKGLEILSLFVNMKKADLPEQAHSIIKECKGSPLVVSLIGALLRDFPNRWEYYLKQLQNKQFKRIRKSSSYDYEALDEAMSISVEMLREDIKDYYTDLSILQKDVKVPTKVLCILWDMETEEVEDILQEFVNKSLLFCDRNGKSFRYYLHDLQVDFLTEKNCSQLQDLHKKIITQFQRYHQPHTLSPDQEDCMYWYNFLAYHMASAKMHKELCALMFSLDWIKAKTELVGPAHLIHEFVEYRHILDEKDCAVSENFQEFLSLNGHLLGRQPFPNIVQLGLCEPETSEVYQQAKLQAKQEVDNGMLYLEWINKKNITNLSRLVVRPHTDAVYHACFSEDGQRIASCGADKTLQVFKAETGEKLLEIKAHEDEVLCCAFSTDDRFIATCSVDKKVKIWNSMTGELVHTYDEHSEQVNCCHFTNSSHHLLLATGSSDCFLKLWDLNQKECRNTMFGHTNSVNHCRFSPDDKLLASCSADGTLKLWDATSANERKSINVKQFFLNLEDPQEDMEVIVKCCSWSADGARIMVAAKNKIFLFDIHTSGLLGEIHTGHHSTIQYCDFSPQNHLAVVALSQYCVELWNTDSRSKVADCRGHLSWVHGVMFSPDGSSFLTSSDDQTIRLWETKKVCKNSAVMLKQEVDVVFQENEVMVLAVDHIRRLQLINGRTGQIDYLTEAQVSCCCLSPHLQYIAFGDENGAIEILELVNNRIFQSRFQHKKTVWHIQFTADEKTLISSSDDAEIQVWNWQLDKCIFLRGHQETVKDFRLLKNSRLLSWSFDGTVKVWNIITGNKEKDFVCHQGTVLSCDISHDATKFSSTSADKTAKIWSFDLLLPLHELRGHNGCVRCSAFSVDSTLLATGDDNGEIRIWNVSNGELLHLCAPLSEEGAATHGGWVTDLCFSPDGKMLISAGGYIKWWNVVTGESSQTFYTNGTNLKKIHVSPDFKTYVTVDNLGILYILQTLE", "assay": "activation of Apaf-1 mediated apoptosis – fluorescent, uHTS hits, dose response (AID 588554)"}},
  "note": "The source made the active and inactive calls.",
  "data": [
    {"compound": "COc1ccc(Nc2ccc3c(c2)=NC2(CCCCC2)[N+]=3[O-])cc1", "values": [
      {"measurement": "EC50", "setting": "[1]", "result": "1.89 µM (active)"},
      {"measurement": "EC50", "setting": "[2]", "result": "> 120 µM (not active)"}
    ]},
    {"compound": "COc1ccc(/C=C2\\SC(=S)N(CCC(=O)Nc3ccc(C(=O)O)cc3)C2=O)cc1OC", "values": [
      {"measurement": "IC50", "setting": "[3]", "result": "1.08 µM (active)"},
      {"measurement": "IC50", "setting": "[4]", "result": "4.09 µM (active)"},
      {"measurement": "EC50", "setting": "[5]", "result": "9.36 µM (active)"}
    ]}
  ]
}
